Where only a bound is given, the exact number is not on record here.

The test system of the test is rat pituitary cells. The experiment in a line: growth hormone secretion in rat pituitary cell cultures (GH release, RIA). As to conditions: GH release from cultured rat anterior pituitary cells, 15 min incubation at 37° C., rat GH measured by double antibody RIA; read-out: ED50 (the source's name). It counts as cell-based. As for the experimental part:
The bioassay employed for the determination of growth hormone secretion in rat pituitary cell cultures has been previously described--Cheng, K.; Chan, W. W.-S; Barreto, A.; Convey, E. M.; Smith, R. G. Endocrinology 124: 2791-2798 (1989)--and is summarized here: The Wistar male rats (150-200 grams) were obtained from Charles River Laboratories (Wilmington, Mass). Rats were maintained at a constant temperature (25° C.) on a 14-hr light, 10-hr dark cycle. Rat chow and water were available ad libitum. The animals were sacrificed by decapitation and anterior lobes of the pituitary quickly removed. Rat pituitary cells were isolated from pituitaries by enzymatic digestion with 0.2% collagenase and 0.2% hyaluronidase in Hank's Balanced Salt Solution. For culture, the cells were suspended in culture medium and adjusted to 1.5×10^5 cells/ml, and 1.0 ml of this suspension was placed in each well of a 24-well tray (Costar, Cambridge, Mass.). Cells were maintained in a humidified 5% CO2 -95% air atmosphere at 37° C. for 3 to 4 days. The culture medium consisted of DMEM containing 0.37% NaHCO3, 10% horse serum, 2.5% fetal bovine serum, 1% non-essential amino acids, 1% glutamine, 1% nystatin, and 0.1% gentamycin. On the day of an experiment, cells were washed twice 11/2 hrs prior to and once more immediately before the start of the experiment with the above culture medium containing 25 mM HEPES, pH 7.4. GH release was initiated by adding 1 ml of fresh medium containing test agents to each well in quadruplicate. Incubation was carded out at 37° C. for 15 min. After incubation, medium was removed and centrifuged at 2,000×g for 15 min to remove any cellular material. The supernatant fluid was removed and assayed for GH content. Rat GH in culture medium was measured by a double antibody RIA procedure using materials obtained from Dr. A. F. Parlow (Harbor-UCLA medical Center, Torrance, Calif.) and expressed in terms of the standard rat GH RP-2. ED50 values for test compounds were computed by fitting a four-parameter logistic function to the dose-response curve. Least squares estimates of the four-parameter logistic function coefficients and their variances were derived using the iterative algorithm described by Bates and Watts.
In the case of `CC(C)(N)C(=O)N[C@H](COCc1ccccc1)C(=O)NCc1ccc(-c2ccccc2NC(=O)NCCO)cc1.O=C(O)C(F)(F)F` [Example 25, (R)-α-[(2-Amino-2-methyl-1-oxopropyl)amino]-N-[[(2'-[(2-hydroxyethylamino)carbonyl]amino][1,1'-biphenyl]-4-yl]-methyl]-3-[(phenylmethyl)oxy]propanamide, trifluoracetate], the EC50 is above 500 nM. With `CC(C)(N)CC(=O)N[C@H](COCc1ccccc1)C(=O)NCc1ccc(-c2ccccc2NC(=O)NCCO)cc1.O=C(O)C(F)(F)F` [Example 26, (R)-α-[(3-Amino-3-methyl-1-oxobutyl)amino]-N-[[(2'-[(2-hydroxyethylamino)carbonyl]amino][1,1'-biphenyl]-4-yl]-methyl]-3-[(phenylmethyl)oxy]propanamide, trifluoracetate], the EC50 was above 500 nM.

On to `CC(C)(N)C(=O)N[C@H](COCc1ccccc1)C(=O)NCc1ccc(-c2ccccc2-c2nnn[nH]2)cc1.O=C(O)C(F)(F)F` [Example 27, (R)-α-[(2-Amino-2-methyl-1-oxypropyl)amino]-N-[[2'-(1H-tetrazol-5-yl)-[1,1'-biphenyl]-4-yl]methyl]-3-[(phenylmethyl)oxy]propanamide, trifluoracetate], for which the EC50 was above 500 nM. `CC(C)(N)CC(=O)N[C@H](COCc1ccccc1)C(=O)NCc1ccc(-c2ccccc2-c2nnn[nH]2)cc1.O=C(O)C(F)(F)F` [Example 28, (R)-α-[(3-Amino-3-methyl-1-oxybutyl)amino]-N-[[2'-(1H-tetrazol-5-yl)-[1,1'-biphenyl]-4-yl]methyl]-3-[(phenylmethyl)oxy]propanamide, trifluoracetate]: the EC50 was above 500 nM. As to `COc1ccc(N(Cc2ccc(-c3ccccc3-c3nnn[nH]3)cc2)C(=O)[C@@H](CCc2ccccc2)NC(=O)C(C)(C)N)cc1.O=C(O)C(F)(F)F` [Example 29, (R)-α-[(2-Amino-2-methyl-1-oxypropyl)amino]-N-(4-methoxyphenyl)-N-[[2'-(1H-tetrazol-5-yl)-[1,1'-biphenyl]-4-yl]methyl]benzenebutanamide, trifluoroacetate], the EC50 was above 500 nM. Consider `COc1ccc(N(Cc2ccc(-c3ccccc3-c3nnn[nH]3)cc2)C(=O)[C@@H](CCc2ccccc2)NC(=O)CC(C)(C)N)cc1.O=C(O)C(F)(F)F` [Example 30, (R)-α-[(3-Amino-3-methyl-1-oxybutyl)amino]-N-(4-methoxyphenyl)-N-[[2'-(1H-tetrazol-5-yl)-[1,1'-biphenyl]-4-yl]methyl]-benzenebutanamide, trifluoroacetate], for which the EC50 is above 500 nM. With `CC(C)(N)C(=O)N[C@H](CCc1ccccc1)C(=O)N(Cc1ccc(-c2ccccc2-c2nnn[nH]2)cc1)c1ccc(O)cc1.O=C(O)C(F)(F)F` [Example 31, (R)-α-[(2-Amino-2-methyl-1-oxypropyl)amino]-N-(4-hydroxyphenyl)-N-[[2'-(1H-tetrazol-5-yl)-[1,1'-biphenyl]-4-yl]methyl]benzene-butanamide, trifluoroacetate] the figure was above 500 nM.

As for `CNC(=O)Nc1ccccc1-c1ccc(N(C)C(=O)[C@@H](CCc2ccccc2)NC(=O)C(C)(C)N)cc1.O=C(O)C(F)(F)F` [Example 33], the EC50 was above 500 nM.

“(R)-α-[(2-Amino-2-methyl)-1-oxopropyl]amino-N -methyl-N -[2'-(1H -tetrazol-5-yl)[1,1'-biphenyl]-4-yl]butanamide, trifluoroacetate [Example 34]”: the EC50 was below 500 nM.

As to “(R)-α-[(2-Amino-2-methyl)-1-oxopropyl]amino-N-methyl-N-[(2'-[[(methylamino)carbonyl]amino)methyl][1,1'-biphenyl]-4-yl]benzenebutanamide, trifluoroacetate [Example 35]”, the EC50 is below 500 nM.

(Values after patent US5726319A, “Biphenyl substituted dipeptide analogs promote release of growth hormone” (Merck & Co., Inc., priority 1995, dated 1998).)
